Data on 2 substances can be found in patent publication US7824687B2, “Clustered multi-antigenic carbohydrate constructs, methods for their preparation, and uses thereof” (Sloan-Kettering Institute For Cancer Research, priority 1999, dated 2010).

For test [1], the system named is GD3-KLH and MUC1-KLH conjugates. As to conditions: mouse; cited from earlier work.
The test system of the next test is monoclonal antibody F12. The test can be described thus: Binding to monoclonal antibody F12 (ELISA, immune thin layer chromatography, inhibition). The source says: In yet another example, a fucosyl GM1-KLH glycoconjugate is generated according to the method of the present invention, as discussed in Example 1. […] Clearly, the synthetic fucosyl GM1 pentenyl glycoside provides the antigenic epitope with which F12 reacts on SCLC cells.
Background: An ELISA detects its analyte on a solid surface through an enzyme-linked reagent.

QS-21: the “augmentation of antibody responses compared to the conjugates alone” value in test [1] is recorded as 1000-100,000 fold. “fucosyl GM1 pentenyl glycoside [n-pentenyl fucosyl GM1]”: in the test with monoclonal antibody F12 (ELISA and immune thin layer chromatography assays, prior to conjugation), the “binding to monoclonal antibody F12” value is listed as “shown to bind”. In the test with monoclonal antibody F12 (preincubation of F12), the “inhibition of reactivity of natural fucosyl GM1 with F12” value is “completely inhibits”.
